Test results taken from patent US8729087B2, “Compositions and methods for inhibition of the JAK pathway” (Rigel Pharmaceuticals, Inc., priority 2006, dated 2014).
Where two headings read alike, the source gives them in different places.

How the values were obtained:
[1] = tested on: Human U937 monocytic cells; assay: U937 IFNγ ICAM1 FACS Assay; type: cell-based
From the text: (§1) The activity of the compounds of the invention may additionally be characterized by assaying the effect of the 2,4-pyrimidinediamine compounds described herein on A549 lung epithelial cells and U937 cells. A549 lung epithelial cells and U937 cells up-regulate ICAM-1 (CD54) surface expression in response to a variety of different stimuli. Therefore, using ICAM-1 expression as readout, test compound effects on different signaling pathways can be assessed in the same cell type. Stimulation with IL-1β through the IL-1β receptor activates the TRAF6/NFκB pathway resulting in up-regulation of ICAM-1. IFNγ induces ICAM-1 up-regulation through activation of the JAK1/JAK2 pathway. The up-regulation of ICAM-1 can be quantified by flow cytometry across a compound dose curve and EC50 values are calculated. An exemplary assays of this type are described in greater detail in Examples 4 and 5.
(§2) Human U937 monocytic cells up-regulate ICAM-1 (CD54) surface expression in response to a variety of different stimuli. Therefore, using ICAM-1 expression as readout, compound effects on different signaling pathways can be assessed in the same cell type. IFNγ up-regulates ICAM-1 through activation of the JAK/Stat pathway. In this example, the up-regulation of ICAM-1 by IFNγ was assessed.
The U937 human monocytic cell line was obtained from ATCC of Rockville Md., catalog number CRL-1593.2, and cultured in RPM1-1640 medium containing 10% (v/v) FCS. U937 cells were grown in 10% RPMI. The cells were then plated at a concentration of 100,000 cells per 160 μL in 96 well flat bottom plates. The test compounds were then diluted as follows: 10 mM test compound was diluted 1:5 in DMSO (3 μL 10 mM test compound in 12 μL DMSO), followed by a 1:3 serial dilution of test compound in DMSO (6 μL test compound serially diluted into 12 μL DMSO to give 3-fold dilutions). Then 4 μL of test compound was transferred to 76 μL of 10% RPMI resulting in a 10× solution (100 μM test compound, 5% DMSO). For control wells, 4 μL of DMSO was diluted into 76 μL 10% RPMI.
The assay was performed in duplicate with 8 points (8 3-fold dilution concentrations from […]) and with 4 wells of DMSO only (control wells) under stimulated conditions and 4 wells of DMSO only under unstimulated conditions.
The diluted compound plate was mixed 2× using a multimek (Beckman Coulter of Brea, Calif.) and then 20 μL of the diluted compounds was transferred to the 96 well plate containing 160 μL of cells, which were then mixed again twice at low speeds. The cells and compounds were then pre-incubated for 30 minutes at 37° C. with 5% CO2.
The 10× stimulation mix was made by preparing a 100 ng/mL solution of human IFNγ in 10% RPMI. The cells and compound were then stimulated with 20 μL of IFNγ stimulation mix to give a final concentration of 10 ng/mL IFNγ, 10 μM test compound, and 0.5% DMSO. The cells were kept under conditions for stimulation for 18-24 hours at 37° C. with 5% CO2.
The cells were transferred to a 96 well round bottom plate for staining and then kept on ice for the duration of the staining procedure. Cells were spun down at 1000 rpm for 5 minutes at 4° C., following which the supernatant was removed. Following removal of the supernatant, 1 μL APC conjugated mouse anti-human ICAM-1 antibody was added per 100 μL FACS buffer. The cells were then incubated on ice in the dark for 30 minutes. Following incubation, 150 μL of FACS buffer was added and the cells were centrifuged at 1000 rpm for 5 minutes at 4° C., following which the supernatant was removed. After removal of the supernatant, 200 μL of FACS buffer was added and the cells were resuspended. After suspension, the cells were centrifuged at 1000 rpm for 5 min at 4° C. Supernatant was then removed prior to resuspension of the cells in 150 μL FACS buffer.
Detection was performed using a BD LSR I System Flow Cytometer, purchased from BD Biosciences of San Jose, Calif. […]

[2] = tested on: A549 lung epithelial cells; assay: A549 Epithelial Line Stimulated with IFNγ (ICAM-1 surface expression, FACS); type: cell-based, human; conditions: IFNγ 75 ng/mL, 24 hours, ICAM-1 (CD54) surface expression by flow cytometry; read-out: Example 4 (IC50, A549 epithelial line stimulated with IFNγ)
From the text: as §1
as §2, with “A549 lung epithelial” for “Human U937 monocytic”
The A549 lung epithelial carcinoma cell line originated from the American Type Culture Collection. Routine culturing was with F12K media (Mediatech Inc., Lenexa, Kans., Cat. No. 10-025-CV) with 10% fetal bovine serum, 100 I.U. penicillin and […] streptomycin (complete F12k media). Cells were incubated in a humidified atmosphere of 5% CO2 at 37° C. Prior to use in the assay, A549 cells were washed with PBS and trypsinized (Mediatech Inc., Cat. No. 25-052-CI) to lift the cells. The trypsin cell suspension was neutralized with complete F12K media and centrifuged to pellet the cells. The cell pellet was resuspended in complete F12K media at a concentration of 2.0×10^5/mL. Cells were seeded at 20,000 per well, 100 μL total volume, in a flat bottom tissue culture plate and allowed to adhere overnight.
On day two, A549 cells were pre-incubated with a 2,4-pyrimidinediamine test compound or DMSO (control) (Sigma-Aldrich, St. Louis, Mo., Catalog No. D2650) for 1 hour. The cells were then stimulated with IFNγ (75 ng/mL) (Peprotech Inc., Rocky Hill, N.J., Cat. No. 300-02) and allowed to incubate for 24 hours. The final test compound dose range was 30 μM to 14 nM in 200 μL F12K media containing 5% FBS, 0.3% DMSO.
On day three, the cell media was removed and the cells were washed with 200 μL PBS (phosphate buffered saline). Each well was trypsinized to dissociate the cells, then neutralized by addition of 200 μL complete F12K media. Cells were pelleted and stained with an APC conjugated mouse anti-human ICAM-1 (CD54) (BD Pharmingen, San Diego, Calif., Catalog #559771) antibody for 20 minutes at 4° C. Cells were washed with ice cold FACS buffer (PBS+2% FBS) and surface ICAM-1 expression was analyzed by flow cytometry. Detection was performed using a BD LSR I System Flow Cytometer, purchased from BD Biosciences of San Jose, Calif. Events were gated for live scatter and the geometric mean was calculated (Becton-Dickinson CellQuest software version 3.3, Franklin Lakes, N.J.). Geometric means were plotted against the compound concentration to generate a dose response curve.

[3] = Homo sapiens, U-937, IFNγ 10 ng/mL, 18-24 hours, ICAM-1 expression by flow cytometry, read-out: Example 5 (IC50, U937 IFNγ ICAM1 FACS assay)
[4] = IFNγ 10 ng/mL, 18-24 hours, ICAM-1 expression by flow cytometry, read-out: Example 5 (IC50, U937 IFNγ ICAM1 FACS assay)

Row | Compound | IC50 [1, 4] | IC50 [2] | also measured
1 | Cc1cnc(Nc2ccc(S(N)(=O)=O)cc2)nc1Nc1ccc2c(c1)C(NS(C)(=O)=O)CC2 (racemic) [VI-2, (+/−)-N2-(4-Aminosulfonylphenyl)-5-methyl-N4-[1-(methylsulfonyl)aminoindan-6-yl]-2,4-pyrimidinediamine] | – | – | IC50 [1, 3]: 2580 nM
2 | N#CCOc1ccc(Nc2nc(Nc3cccc(CS(N)(=O)=O)c3)ncc2F)cc1 [Compound I-1, N2-[3-(Aminosulfonylmethylene)phenyl]-5-fluoro-N4-(4-cyanomethyleneoxyphenyl)-2,4-pyrimidinediamine] | 554 nM | 3.07 µM | –
3 | CCS(=O)(=O)NCc1ccc(Nc2nc(Nc3ccc(CS(=O)(=O)NC)cc3)ncc2C)cc1 [Compound I-2, N4-(4-ethylsulfonylaminomethyl)phenyl-5-methyl-N2-(4-methylaminosulfonylmethyl)phenyl-2,4-pyrimidinediamine] | 133 nM | 1.74 µM | –
4 | CNS(=O)(=O)Cc1ccc(Nc2ncc(F)c(Nc3ccc(CNS(=O)(=O)C4CC4)cc3)n2)cc1 [Compound I-8, N4-(4-cyclopropylsulfonylaminomethyl)phenyl-5-fluoro-N2-(4-methylaminosulfonylmethyl)phenyl-2,4-pyrimidinediamine] | 347 nM | 3.89 µM | –
5 | CCS(=O)(=O)NCc1ccc(Nc2nc(Nc3ccc(CS(=O)(=O)NC)cc3)ncc2F)cc1 [Compound I-10, N4-(4-ethylsulfonylaminomethyl)phenyl-5-fluoro-N2-(4-methylaminosulfonylmethyl)phenyl-2,4-pyrimidinediamine] | 469 nM | – | –
6 | Cc1cnc(Nc2ccc(CNS(=O)(=O)C3CC3)cc2)nc1Nc1ccc(CNS(=O)(=O)C2CC2)cc1 [II-1, N2,N4-bis(4-cyclopropylsulfonylaminomethyl)phenyl-5-methyl-2,4-pyrimidinediamine] | 71.3 nM | 6.23 µM | –
7 | Cc1cnc(Nc2ccc(CCNS(=O)(=O)C3CC3)cc2)nc1Nc1ccc(CCNS(=O)(=O)C2CC2)cc1 [II-2, N2,N4-bis[4-(2-cyclopropylsulfonylamino)ethyl]phenyl-5-methyl-2,4-pyrimidine diamine] | 991 nM | – | –
8 | COc1cc(Nc2nc(Nc3ccc4c(c3)CN(S(N)(=O)=O)CC4)ncc2F)ccc1Cl [III-1, N2-(2-Aminosulfonyl-1,2,3,4-tetrahydroisoquinolin-7-yl)-N4-(4-chloro-3-methoxyphenyl)-5-fluoro-2,4-pyrimidinediamine] | – | – | IC50 [1, 3]: 1080 nM
9 | NS(=O)(=O)N1CCc2ccc(Nc3ncc(F)c(Nc4ccc(CNS(=O)(=O)C5CC5)cc4)n3)cc2C1 [III-2, N2-(2-Aminosulfonyl-1,2,3,4-tetrahydroisoquinolin-7-yl)-N4-[4-(cyclopropylsulfonylaminomethyl)phenyl]-5-fluoro-2,4-pyrimidinediamine] | – | – | IC50 [1, 3]: 164 nM
10 | C#CCOc1ccc(Nc2nc(Nc3ccc4c(c3)CN(S(N)(=O)=O)CC4)ncc2F)cc1 [III-4, N2-(2-Aminosulfonyl-1,2,3,4-tetrahydroisoquinolin-7-yl)-N4-(4-(prop-2-ynyloxy)phenyl)-5-fluoro-2,4-pyrimidinediamine] | – | – | IC50 ([1]; Homo sapiens, U-937, read-out: Example 5 (IC50, U937 IFNγ ICAM1 FACS assay)): 462 nM
11 | CC1(C)Oc2cc(Nc3nc(Nc4cccc(CS(N)(=O)=O)c4)ncc3F)cnc2NC1=O [IV-1, N2-[3-(Aminosulfonylmethylene)phenyl]-N4-[2,2-dimethyl-3-oxo-4H-pyrid[1,4]oxazin-7-yl]-5-fluoro-2,4-pyrimidinediamine] | 18600 nM | – | –
12 | CN1C(=O)C(C)(C)Oc2cc(Nc3nc(Nc4cccc(CS(N)(=O)=O)c4)ncc3F)cnc21 [IV-2, N2-[3-(Aminosulfonylmethylene)phenyl]-N4-[2,2-dimethyl-3-oxo-4-methyl-pyrid[1,4]oxazin-7-yl]-5-fluoro-2,4-pyrimidinediamine] | – | 3.5 µM | –
